Measured values from paper PMC4872784 (Oncotarget, 2016).
Read-outs that look alike come from different tables or passages of the source.

How the values were obtained:
[1] = test system: CCRF-CEM cells; test: alamarBlue cytotoxicity assay, 48h; type: cell-based, human; settings: CCRF-CEM (T-ALL), RPMI + 10% FBS
Experimental: (§1) Following subtraction of background fluorescence from all wells, fluorescence of drug-treated cells was normalized to that of vehicle (<0.5% DMSO)-treated cells to determine the effect of each drug concentration on viability. Each cell line was tested in triplicate and in at least three independent experiments. IC50 (concentration that inhibits cell growth by 50%) values were calculated using CompuSyn software (ComboSyn, Paramus, NJ). […] In addition several cell lines were initially cultured and tested in alternative media (Supplementary Table S2). […] Colony counts were normalized to vehicle-treated controls (100%). Three independent experiments were performed.
(§2) In most experiments, cytotoxicity was assessed using alamarBlue assays (Life Technologies, Grand Island, NY). In experiments using NAC and DFO, which can interfere with alamarBlue assay performance, Trypan Blue dye exclusion was used instead. […]
(§3) experiments performed in triplicate. […] Age refers to age […]
(§4) at the time of leukemia diagnosis of the patient from whom the cell line was derived. (–) Indicates information unavailable.
(§5) *Cell lines with FLT3/ITD mutations.
(§6) *The MV-4–11 cell line was derived from a patient with a biphenotypic B-myelomonocytic leukemia; K562 was derived […]
(§7) 1A. p53 status was obtained from http://cancer.sanger.ac.uk/cell_lines/cbrowse/all and http://p53.free.fr/Database/Cancer_ cell_lines/Leukemia_cancer. html. WT: wild type. Mut: mutant. SM: single mutation. DM: double mutation. MM: multiple mutations. Fs: Frameshift mutation. Null: protein expression undetectable.

[2] = test system: HL-60 cells; test: alamarBlue cytotoxicity assay, 48h; type: cell-based, human; settings: HL-60 (AML), RPMI + 10% FBS
Experimental: as §1, §2, §3, §4, §5, §6, §7

[3] = test system: Jurkat cells; test: alamarBlue cytotoxicity assay, 48h; type: cell-based, human; settings: Jurkat (T-ALL), RPMI + 10% FBS
Experimental: as §1, §2, §3, §4, §5, §6, §7

[4] = test system: K562 cells; test: alamarBlue cytotoxicity assay, 48h; type: cell-based, human; settings: K562 (CML), RPMI + 10% FBS
Experimental: as §1, §2, §3, §4, §5, §6, §7

[5] = test system: KG-1a cells; test: alamarBlue cytotoxicity assay, 48h; type: cell-based, human; settings: KG-1a (AML), RPMI + 10% FBS
Experimental: as §1, §2, §3, §4, §5, §6, §7

[6] = test system: Kasumi-1 cells; test: alamarBlue cytotoxicity assay, 48h; type: cell-based, human; settings: Kasumi-1 (AML), RPMI + 10% FBS
Experimental: as §1, §2, §3, §4, §5, §6, §7

[7] = test system: Kasumi-2 cells; test: alamarBlue cytotoxicity assay, 48h; type: cell-based, human; settings: Kasumi-2 (B-ALL), RPMI + 10% FBS
Experimental: as §1, §2, §3, §4, §5, §6, §7

[8] = test system: ML-2 cells; test: alamarBlue cytotoxicity assay, 48h; type: cell-based, human; settings: ML-2 (AML), RPMI + 10% FBS
Experimental: as §1, §2, §3, §4, §5, §6, §7

[9] = test system: MOLT-16 cells; test: alamarBlue cytotoxicity assay, 48h; type: cell-based, human; settings: MOLT-16 (T-ALL), RPMI + 10% FBS
Experimental: as §1, §2, §3, §4, §5, §6, §7

[10] = test system: MOLT-3 cells; test: alamarBlue cytotoxicity assay, 48h; type: cell-based, human; settings: MOLT-3 (T-ALL), RPMI + 10% FBS
Experimental: as §1, §2, §3, §4, §5, §6, §7

[11] = test system: MV-4-11 cells; test: alamarBlue cytotoxicity assay, 48h; type: cell-based, human; settings: RPMI + 10% FBS
Experimental: as §1, §2, §3, §4, §5, §6, §7

[12] = test system: NALM-6 cells; test: alamarBlue cytotoxicity assay, 48h; type: cell-based, human; settings: NALM-6 (B-ALL), RPMI + 10% FBS
Experimental: as §1, §2, §3, §4, §5, §6, §7

[13] = test system: NB-4 cells; test: alamarBlue cytotoxicity assay, 48h; type: cell-based, human; settings: NB-4 (AML), RPMI + 10% FBS
Experimental: as §1, §2, §3, §4, §5, §6, §7

[14] = test system: OCI-AML3 cells; test: alamarBlue cytotoxicity assay, 48h; type: cell-based, human
Experimental: as §1, §2, §3, §4, §5, §6, §7

[15] = test system: RCH-ACV cells; test: alamarBlue cytotoxicity assay, 48h; type: cell-based, human; settings: RCH-ACV (B-ALL), RPMI + 10% FBS
Experimental: as §1, §2, §3, §4, §5, §6, §7

[16] = test system: REH cells; test: alamarBlue cytotoxicity assay, 48h; type: cell-based, human
Experimental: as §1, §2, §3, §4, §5, §6, §7

[17] = test system: RS4;11 cells; test: alamarBlue cytotoxicity assay, 48h; type: cell-based, human; settings: RS4;11 (B-ALL), RPMI + 10% FBS
Experimental: as §1, §2, §3, §4, §5, §6, §7

[18] = test system: SUPB15 cells; test: alamarBlue cytotoxicity assay, 48h; type: cell-based, human
Experimental: as §1, §2, §3, §4, §5, §6, §7

[19] = test system: THP-1 cells; test: alamarBlue cytotoxicity assay, 48h; type: cell-based, human
Experimental: as §1, §2, §3, §4, §5, §6, §7

[20] = test system: U937 cells; test: alamarBlue cytotoxicity assay, 48h; type: cell-based, human; settings: RPMI + 10% FBS
Experimental: as §1, §2, §3, §4, §5, §6, §7

[21] = test system: MOLM14 xenograft; test: subcutaneous MOLM14 AML xenograft; settings: for average tumor mass less than vehicle-treated tumors: day 21
Experimental: CBCs were performed on day 23 (Supplementary Figure S8). Mice were euthanized when tumors reached an estimated 2000mg. […] B. Percent of Day 0 body weight. […] C. Kaplan-Meier survival analysis. […] D. Percent of Day 0 body weight.

[22] = test system: MOLM14 or KOPN8 cells; test: drug combinations, alamarBlue 48h, combination indices; settings: for effect of addition on cytotoxicity of ARA, DOX, ETO, MID, LES, SOR: equipotency ratio based on IC50s, 48h
Experimental: Supplementary Figure S10: Drug combinations against MOLM14. MOLM14 cells were treated with a range of concentrations
experiment was performed three times in triplicate, and error bars represent the SEM.
Combination indices (CI) were computed for each drug combination using CompuSyn software, based on the Median Effect
Principle and the CI theorem of Chou-Talalay, wherein CI = 1 indicates additivity, CI < 1 synergism, and CI > 1 antagonism. Data are
Supplementary Figure S11: Drug combinations against KOPN8. KOPN8 cells were treated with a range of concentrations
Each experiment was performed at least three times in triplicate, and error bars represent the SEM.

With `C[C@@H]1CCC2[C@@H](C)[C@@H](CC(COP(=O)(Oc3ccccc3)Oc3ccccc3)C[C@H]3O[C@@H]4O[C@@]5(C)CCC6[C@H](C)CCC([C@H]3C)[C@]64OO5)O[C@@H]3O[C@@]4(C)CCC1[C@@]23OO4` (stereo partly shown) [ART-838, artemisinin-derived trioxane diphenylphosphate dimer 838] the IC50 [1] was 483 ± 195 nM, the IC50 [2] was 107 ± 45 nM and the IC50 [3] was 255 ± 155 nM. For the same molecule, the IC50 [4] was 94 ± 12 nM, the IC50 [5] was 547 ± 147 nM and the IC50 [6] was 67 ± 23 nM. For the same molecule, the IC50 [7] was 26 ± 4 nM, the IC50 [8] was 21 ± 11 nM and the IC50 [9] was 10 ± 2 nM. It also gave an IC50 [10] of 97 ± 58 nM, an IC50 ([11]; MV-4-11 (AML/B-ALL)) of 25 ± 5 nM and an IC50 [12] of 16 ± 5 nM. For the same molecule, the IC50 [13] was 26 ± 7 nM, the IC50 ([14]; OCI-AML3 (AML), 48h, RPMI + 10% FBS, read-out: IC50) was 168 ± 41 nM and the “-Fold Difference in IC50 between media” value ([14]; OCI-AML3, RPMI + 20% FBS vs RPMI+10% FBS) was 1.7. It also gave an IC50 ([14]; OCI-AML3, original medium RPMI + 20% FBS, read-out: IC50 in original medium) of 287 nM, an IC50 [15] of 36 ± 12 nM and an IC50 ([16]; REH (B-ALL), 48h, RPMI + 10% FBS, read-out: IC50) of 95 ± 40 nM. The “-Fold Difference in IC50 between media” value ([16]; REH, RPMI + 20% FBS vs RPMI+10% FBS) was 1.3, the IC50 ([16]; REH, original medium RPMI + 20% FBS, read-out: IC50 in original medium) was 123 nM and the IC50 ([16]; read-out: IC50 in RPMI+10% FBS, REH, Table S2) was 95 nM. For the same molecule, the IC50 [17] was 62 ± 23 nM, the IC50 ([18]; SUPB15 (B-ALL), 48h, RPMI + 10% FBS, read-out: IC50) was 26 ± 3 nM and the “-Fold Difference in IC50 between media” value ([18]; SUPB15, RPMI + 20% FBS vs RPMI+10% FBS) was 3.0. The IC50 ([18]; SUPB15, original medium RPMI + 20% FBS, read-out: IC50 in original medium) was 77 nM, the IC50 ([19]; THP-1 (AML), 48h, RPMI + 10% FBS, read-out: IC50) was 38 ± 9 nM and the “-Fold Difference in IC50 between media” value ([19]; THP-1, RPMI + 10% FBS + 50 μM β-mercaptoethanol vs RPMI+10% FBS) was 2.5. For the same molecule, the IC50 ([19]; THP-1, original medium RPMI + 10% FBS + 50 μM β-mercaptoethanol, read-out: IC50 in original medium) was 95 nM, the IC50 ([20]; U937 (AML)) was 10 ± 1 nM and the “average tumor mass less than vehicle-treated tumors” value ([21]; two 5-day cycles ART-838 50 mg/kg/d oral gavage) was 83%. For the same molecule, the “complete and differential blood cell counts” value ([21]; tumor-bearing NSG mice, day 23, after two 5-day cycles ART-838 50 mg/kg/d) was “within the normal range”, the “interaction with kinase inhibitors MID, LES, SOR” value ([22]; combination indices) was “combined synergistically with all three kinase inhibitors” and the “effect of addition on cytotoxicity of ARA, DOX, ETO, MID, LES, SOR” value [22] was “enhanced the cytotoxicity of all six tested drugs”.

In the case of `C[C@H]1[C@H](OC(=O)CCC(=O)O)O[C@@H]2O[C@@]3(C)CC[C@H]4[C@H](C)CC[C@@H]1[C@@]24OO3` [AS, artesunate], the IC50 ([1]; Homo sapiens) is reported as 7340 ± 1240 nM, the IC50 ([2]; Homo sapiens) is reported as 3000 ± 600 nM and the IC50 ([3]; Homo sapiens) is reported as 4330 ± 1180 nM. The IC50 ([4]; Homo sapiens) was 4750 ± 850 nM, the IC50 ([5]; Homo sapiens) was 6260 ± 300 nM and the IC50 ([6]; Homo sapiens) was 1720 ± 230 nM. The IC50 ([7]; Homo sapiens) was 6650 ± 340 nM, the IC50 ([8]; Homo sapiens) was 1460 ± 210 nM and the IC50 ([9]; Homo sapiens) was 1630 ± 70 nM. For the same molecule, the IC50 ([10]; Homo sapiens) was 4100 ± 620 nM, the IC50 ([11]; Homo sapiens, MV4-11, MV-4-11 (AML/B-ALL)) was 796 ± 96 nM and the IC50 ([12]; Homo sapiens) was 5190 ± 430 nM. For the same molecule, the IC50 ([13]; Homo sapiens) was 947 ± 141 nM, the IC50 ([14]; Homo sapiens, OCI-AML-3, OCI-AML3 (AML), 48h, RPMI + 10% FBS, read-out: IC50) was 1810 ± 200 nM and the IC50 ([14]; Homo sapiens, OCI-AML-3, OCI-AML3, original medium RPMI + 20% FBS, read-out: IC50 in original medium) was 3560 nM. It also gave an IC50 ([15]; Homo sapiens) of 3200 ± 540 nM, an IC50 ([16]; Homo sapiens, read-out: IC50 in RPMI+10% FBS, REH, Table S2) of 10300 nM and an IC50 ([16]; Homo sapiens, REH (B-ALL), 48h, RPMI + 10% FBS, read-out: IC50) of 10300 ± 3000 nM. The IC50 ([16]; Homo sapiens, REH, original medium RPMI + 20% FBS, read-out: IC50 in original medium) was 15400 nM, the IC50 ([17]; Homo sapiens) was 5420 ± 1890 nM and the IC50 ([18]; Homo sapiens, SUP-B15, SUPB15 (B-ALL), 48h, RPMI + 10% FBS, read-out: IC50) was 7820 ± 1220 nM. The IC50 ([18]; Homo sapiens, SUP-B15, SUPB15, original medium RPMI + 20% FBS, read-out: IC50 in original medium) was 14300 nM, the IC50 ([19]; Homo sapiens, THP-1 (AML), 48h, RPMI + 10% FBS, read-out: IC50) was 2200 ± 480 nM and the IC50 ([19]; Homo sapiens, THP-1, original medium RPMI + 10% FBS + 50 μM β-mercaptoethanol, read-out: IC50 in original medium) was 11100 nM. The IC50 ([20]; Homo sapiens, U-937, U937 (AML)) was 1060 ± 170 nM, the “average tumor mass less than vehicle-treated tumors” value ([21]; two 5-day cycles AS 200 mg/kg/d oral gavage) was 44% and the “interaction with SOR” value ([22]; combination indices) was “additive effects”. For the same molecule, the “effect of addition on cytotoxicity of ARA, DOX, ETO, MID, LES, SOR” value [22] was “enhanced the cytotoxicity of all six tested drugs”.
